# Measured values reported in patent US20250228882A1, “ORALLY-BIOAVAILABLE NUCLEOSIDE ANALOGS” (Venatorx Pharmaceuticals, Inc., priority 2022, published 2025).
# Test: Bidirectional Caco-2 permeability assay
# Assay type: in vitro ADME
# Conditions: human, Caco-2
# Method: The bidirectional permeability of compounds across the Caco-2 cell monolayer was assessed. The Caco-2 model is a widely used in vitro model for small intestinal absorption and potential for efflux. Cell culture. Caco-2 cells were grown in DMEM supplemented with 10% fetal bovine serum (FBS), 1% Penicillin-Streptomycin and 1% MEMNEAA. The cells were incubated at 37° C., 5% CO2/95% air and saturated humidity. After reaching 80-90% confluency, the cells were gently detached with trypsin. Cells at passage 39 were seeded on the 24-well BD insert system at the density of 8×10^4 cells/cm^2 and cultured for 19 days with medium changed every 2-3 days. Measure the transepithelial electrical resistance (TEER) value of each well. The wells can be used only when their TEER values are greater than 600 Ohms/cm^2.
# Transport assay. After removing the cell culture medium from the 24-well insert plate, the cells were rinsed with warm transport buffer. Appropriate dosing and receiving solutions were applied to the donor and receiver chambers to initiate the transport assay in apical to basolateral (A to B) or basolateral to apical (B to A) directions (500 and 1300 μL for apical and basolateral wells, respectively). Duplicate wells in each direction were used for the test compound and control compound. The plate was incubated in CO2 incubator at 37° C., with 5% CO2/95% air and saturated humidity without shaking. The sample after 10-minute incubation was used as the To sample, and the sample after 90-minute incubation was used as the T90 sample. To and T90 samples were collected from the donor and receiver side of each well at the designed timepoint, mixed with the transport buffer and acetonitrile/MeOH (1:1, v/v) and the internal standard for LC/MS/MS analysis. All samples were vortexed and centrifuged at 4000 rpm at 4° C. for 15 minutes, diluted with pure water and stored at 4° C. before bioanalysis by LC/MS/MS.
# Sample analysis. The concentrations of test compounds and control compounds in Caco-2 cells were quantitatively determined by LC/MS/MS method after protein precipitation.
# Calculations. The apparent permeability (Papp, cm/s), efflux ratio (ER) and recovery parameters were calculated for Caco-2 drug transport assay using the following equations: […]
# where VR is the solution volume in the receiver chamber (0.4 mL on the apical side, 1.2 mL on the basolateral side); Area is the surface area for the insert membrane, i.e., 0.3 cm^2 for the area of the monolayer; Time is incubation time, expressed in seconds, i. e., 5400 s (90 min) for the current experiment; Co is the initial concentration of test compound or peak area ratio of control compounds in the donor chamber (M); VD is the volume in the donor chambers (0.4 mL on the apical side, 1.2 mL on the basolateral side); CD and CR are the final concentrations of test compounds or peak area ratio of control compounds in donor and receiver chambers, respectively.
# Compounds with Papp<1.0 are classified as low permeability, Papp between 1-10 are classified as medium permeability, and Papp>10 are classified as high permeability. An efflux ratio (ER)>2 indicates the compounds are potential substrates for intestinal cell efflux transporters.
SMILES,Papp A→B at 90 min,Papp B→A at 90 min,efflux ratio at 90 min
"COC(C)(C)C(=O)Nc1ncnn2c([C@]3(C#N)O[C@H](COC(=O)CC4CCCCCC4)[C@@H](OC(=O)[C@H](N)C(C)(C)C)[C@H]3O)ccc12 [Compound 70, (2R,3S,4R,5R)-5-cyano-2-((2-cycloheptylacetoxy)methyl)-4-hydroxy-5-(4-(2-methoxy-2-methylpropanamido)pyrrolo[2,1-f][1,2,4]triazin-7-yl)tetrahydrofuran-3-yl (R)-2-amino-3,3-dimethylbutanoate]",2.13 ×10⁻⁶ cm/s,2.2 ×10⁻⁶ cm/s,1.03
"CCCCCCOC(=O)Nc1ncnn2c([C@]3(C#N)O[C@H](COC(=O)[C@@H](N)C(C)(C)C)[C@@H](OC(=O)CC)[C@H]3O)ccc12 [Compound 42, ((2R,3S,4R,5R)-5-cyano-5-(4-(((hexyloxy)carbonyl)amino)pyrrolo[2,1-f][1,2,4]triazin-7-yl)-4-hydroxy-3-(propionyloxy)tetrahydrofuran-2-yl)methyl (S)-2-amino-3,3-dimethylbutanoate]",4.24 ×10⁻⁶ cm/s,3.97 ×10⁻⁶ cm/s,0.94
"CC(=O)Nc1ncnn2c([C@]3(C#N)O[C@H](COC(=O)[C@@H](N)C(C)(C)C)[C@@H](OC(=O)CC4CCCCC4)[C@H]3O)ccc12 [Compound 33, ((2R,3S,4R,5R)-5-(4-acetamidopyrrolo[2,1-f][1,2,4]triazin-7-yl)-5-cyano-3-(2-cyclohexylacetoxy)-4-hydroxytetrahydrofuran-2-yl)methyl (S)-2-amino-3,3-dimethylbutanoate]",24.4 ×10⁻⁶ cm/s,,
"CC(=O)OCOC(=O)Nc1ncnn2c([C@]3(C#N)O[C@H](COC(=O)CC4CCCCC4)[C@@H](OC(=O)[C@@H](N)C(C)(C)C)[C@H]3O)ccc12 [Compound 46, (2R,3S,4R,5R)-5-(4-(((acetoxymethoxy)carbonyl)amino)pyrrolo[2,1-f][1,2,4]triazin-7-yl)-5-cyano-2-((2-cyclohexylacetoxy)methyl)-4-hydroxytetrahydrofuran-3-yl (S)-2-amino-3,3-dimethylbutanoate]",1.45 ×10⁻⁶ cm/s,0.79 ×10⁻⁶ cm/s,0.54
"CCOC(C)(C)C(=O)Nc1ncnn2c([C@]3(C#N)O[C@H](COC(=O)CC4CCCC4)[C@@H](OC(=O)[C@@H](N)C(C)(C)C)[C@H]3O)ccc12 [Compound 66, (2R,3S,4R,5R)-5-cyano-2-((2-cyclopentylacetoxy)methyl)-5-(4-(2-ethoxy-2-methylpropanamido)pyrrolo[2,1-f][1,2,4]triazin-7-yl)-4-hydroxytetrahydrofuran-3-yl (S)-2-amino-3,3-dimethylbutanoate]",5.1 ×10⁻⁶ cm/s,5.79 ×10⁻⁶ cm/s,1.13
"CCCCCC(=O)Nc1ncnn2c([C@]3(C#N)O[C@H](COC(=O)CC4CCCC4)[C@@H](OC(=O)[C@@H](N)C(C)(C)C)[C@H]3O)ccc12 [Compound 55, (2R,3S,4R,5R)-5-cyano-2-((2-cyclopentylacetoxy)methyl)-5-(4-hexanamidopyrrolo[2,1-f][1,2,4]triazin-7-yl)-4-hydroxytetrahydrofuran-3-yl (S)-2-amino-3,3-dimethylbutanoate]",2.74 ×10⁻⁶ cm/s,3.63 ×10⁻⁶ cm/s,1.33
"CCCCCCOC(=O)Nc1ncnn2c([C@]3(C#N)O[C@H](COC(=O)[C@@H](N)C(C)(C)C)[C@@H](O)[C@H]3O)ccc12 [Compound 41, ((2R,3S,4R,5R)-5-cyano-5-(4-(((hexyloxy)carbonyl)amino)pyrrolo[2,1-f][1,2,4]triazin-7-yl)-3,4-dihydroxytetrahydrofuran-2-yl)methyl (S)-2-amino-3,3-dimethylbutanoate]",1.41 ×10⁻⁶ cm/s,14.6 ×10⁻⁶ cm/s,10.4
"CCCCOC(C)(C)C(=O)Nc1ncnn2c([C@]3(C#N)O[C@H](COC(=O)CC4CCCCC4)[C@@H](OC(=O)[C@@H](N)C(C)(C)C)[C@H]3O)ccc12 [Compound 74, (2R,3S,4R,5R)-5-(4-(2-butoxy-2-methylpropanamido)pyrrolo[2,1-f][1,2,4]triazin-7-yl)-5-cyano-2-((2-cyclohexylacetoxy)methyl)-4-hydroxytetrahydrofuran-3-yl (S)-2-amino-3,3-dimethylbutanoate]",0.41 ×10⁻⁶ cm/s,0.41 ×10⁻⁶ cm/s,1
"CCC(=O)O[C@H]1[C@@H](O)[C@](C#N)(c2ccc3c(NC(=O)OCOC(=O)C(C)(C)C)ncnn23)O[C@@H]1COC(=O)[C@@H](N)C(C)(C)C [Compound 40, ((2R,3S,4R,5R)-5-cyano-4-hydroxy-5-(4-((((pivaloyloxy)methoxy)carbonyl)amino)pyrrolo[2,1-f][1,2,4]triazin-7-yl)-3-(propionyloxy)tetrahydrofuran-2-yl)methyl (S)-2-amino-3,3-dimethylbutanoate]",0.13 ×10⁻⁶ cm/s,4.5 ×10⁻⁶ cm/s,34.4
"COC(C)(C)C(=O)Nc1ncnn2c([C@]3(C#N)O[C@H](COC(=O)CC4CCCC4)[C@@H](OC(=O)[C@@H](N)C(C)(C)C)[C@H]3O)ccc12 [Compound 57, (2R,3S,4R,5R)-5-cyano-2-((2-cyclopentylacetoxy)methyl)-4-hydroxy-5-(4-(2-methoxy-2-methylpropanamido)pyrrolo[2,1-f][1,2,4]triazin-7-yl)tetrahydrofuran-3-yl (S)-2-amino-3,3-dimethylbutanoate]",16.4 ×10⁻⁶ cm/s,10.1 ×10⁻⁶ cm/s,0.61
"CCC(=O)O[C@H]1[C@@H](O)[C@](C#N)(c2ccc3c(NC(=O)OCOC(C)=O)ncnn23)O[C@@H]1COC(=O)[C@@H](N)C(C)(C)C [Compound 43, ((2R,3S,4R,5R)-5-(4-(((acetoxymethoxy)carbonyl)amino)pyrrolo[2,1-f][1,2,4]triazin-7-yl)-5-cyano-4-hydroxy-3-(propionyloxy)tetrahydrofuran-2-yl)methyl (S)-2-amino-3,3-dimethylbutanoate]",1.49 ×10⁻⁶ cm/s,1.02 ×10⁻⁶ cm/s,0.69
"CCC(CC)C(=O)Nc1ncnn2c([C@]3(C#N)O[C@H](COC(=O)CC4CCC4)[C@@H](OC(=O)[C@@H](N)C(C)(C)C)[C@H]3O)ccc12 [Compound 50, (2R,3S,4R,5R)-5-cyano-2-((2-cyclobutylacetoxy)methyl)-5-(4-(2-ethylbutanamido)pyrrolo[2,1-f][1,2,4]triazin-7-yl)-4-hydroxytetrahydrofuran-3-yl (S)-2-amino-3,3-dimethylbutanoate]",8.66 ×10⁻⁶ cm/s,8.25 ×10⁻⁶ cm/s,0.95

# Same assay, conditions: human; Caco-2 monolayer, apical to basolateral, 90-minute incubation; read-out: Papp, A-B
row,SMILES,Papp A→B at 90 min
1,"CC(=O)OCOC(=O)Nc1ncnn2c([C@]3(C#N)O[C@H](COC(=O)Cc4ccccc4)[C@@H](OC(=O)[C@@H](N)C(C)(C)C)[C@H]3O)ccc12 [Compound 30, (2R,3S,4R,5R)-5-(4-(((acetoxymethoxy)carbonyl)amino)pyrrolo[2,1-f][1,2,4]triazin-7-yl)-5-cyano-4-hydroxy-2-((2-phenylacetoxy)methyl)tetrahydrofuran-3-yl (S)-2-amino-3,3-dimethylbutanoate]",0.09 ×10⁻⁶ cm/s

# Same assay, conditions: human; Caco-2 monolayer, basolateral to apical, 90-minute incubation; read-out: Papp, B-A
row,SMILES,Papp B→A at 90 min
1,"CC(=O)OCOC(=O)Nc1ncnn2c([C@]3(C#N)O[C@H](COC(=O)Cc4ccccc4)[C@@H](OC(=O)[C@@H](N)C(C)(C)C)[C@H]3O)ccc12 [Compound 30, (2R,3S,4R,5R)-5-(4-(((acetoxymethoxy)carbonyl)amino)pyrrolo[2,1-f][1,2,4]triazin-7-yl)-5-cyano-4-hydroxy-2-((2-phenylacetoxy)methyl)tetrahydrofuran-3-yl (S)-2-amino-3,3-dimethylbutanoate]",3.11 ×10⁻⁶ cm/s

# Same assay, conditions: human; Caco-2 monolayer; ER>2 indicates potential efflux substrate; read-out: ER (efflux ratio)
row,SMILES,efflux ratio at 90 min
1,"CC(=O)OCOC(=O)Nc1ncnn2c([C@]3(C#N)O[C@H](COC(=O)Cc4ccccc4)[C@@H](OC(=O)[C@@H](N)C(C)(C)C)[C@H]3O)ccc12 [Compound 30, (2R,3S,4R,5R)-5-(4-(((acetoxymethoxy)carbonyl)amino)pyrrolo[2,1-f][1,2,4]triazin-7-yl)-5-cyano-4-hydroxy-2-((2-phenylacetoxy)methyl)tetrahydrofuran-3-yl (S)-2-amino-3,3-dimethylbutanoate]",34.6
